Usually IC50 stands for the concentration at which inhibition is half-maximal.

Each structure is given as a SMILES string. Like-named read-outs stand apart in the source and are kept apart here. Some results are limits rather than exact numbers.

The record followed here is patent US20230031406A1, “COMPOUNDS AND COMPOSITIONS FOR TREATING CONDITIONS ASSOCIATED WITH NLRP ACTIVITY” (Novartis AG, priority 2018, published 2023).

This experiment deals with PMA-differentiated THP-1 cells. The experiment is described as follows: IL-1β production in PMA-differentiated THP-1 cells stimulated with gramicidin (hTHP-1 assay containing 2% fetal bovine serum; Procedures 1 and 2). The format is cell-based, human. The settings on record: 2% fetal bovine serum. The procedure:
The following protocol is suitable for testing the activity of the compounds disclosed herein. Procedure 1: IL-1β Production in PMA-Differentiated THP-1 Cells Stimulated with Gramicidin.
THP-1 cells were purchased from the American Type Culture Collection and sub-cultured according to instructions from the supplier. Cells were cultured in complete RPMI 1640 (containing 10% heat inactivated FBS, penicillin (100 units/ml) and streptomycin (100 μg/ml)), and maintained in log phase prior to experimental setup. Prior to the experiment, compounds were dissolved in dimethyl sulfoxide (DMSO) to generate a 30 mM stock. The compound stock was first pre-diluted in DMSO to 3, 0.34, 0.042 and 0.0083 mM intermediate concentrations and subsequently spotted using Echo550 liquid handler into an empty 384-well assay plate to achieve desired final concentration (e.g. 100, 33, 11, 3.7, 1.2, 0.41, 0.14, 0.046, 0.015, 0.0051, 0.0017 μM). DMSO was backfilled in the plate to achieve a final DMSO assay concentration of 0.37%. The plate was then sealed and stored at room temperature until required.
THP-1 cells were treated with PMA (Phorbol 12-myristate 13-acetate) (20 ng/ml) for 16-18 hours. On the day of the experiment the media was removed and adherent cells were detached with trypsin for 5 minutes. Cells were then harvested, washed with complete RPMI 1640, spun down, and resuspended in RPMI 1640 (containing 2% heat inactivated FBS, penicillin (100 units/ml) and streptomycin (100 μg/ml). The cells were plated in the 384-well assay plate containing the spotted compounds at a density of 50,000 cells/well (final assay volume 50 μl). Cells were incubated with compounds for 1 hour and then stimulated with gramicidin (5 μM) (Enzo) for 2 hours. Plates were then centrifuged at 340 g for 5 min. Cell free supernatant (40 μL) was collected using a 96—CHannel PlateMaster (Gilson) and the production of IL-1β was evaluated by HTRF (cisbio). The plates were incubated for 18 h at 4° C. and read using the preset HTRF program (donor emission at 620 nm, acceptor emission at 668 nm) of the SpectraMax i3x spectrophotometer (Molecular Devices, software SoftMax 6). A vehicle only control and a dose titration of CRID3 (100-0.0017 μM) were run concurrently with each experiment.
Procedure 2: IL-1β Production in PMA-Differentiated THP-1 Cells Stimulated with Gramicidin.
THP-1 cells were purchased from the American Type Culture Collection and sub-cultured according to instructions from the supplier. Prior to experiments, cells were cultured in complete RPMI 1640 (containing 10% heat inactivated FBS, penicillin (100 units/ml) and streptomycin (100 μg/ml)), and maintained in log phase prior to experimental setup. Prior to the experiment THP-1 were treated with PMA (Phorbol 12-myristate 13-acetate) (20 ng/ml) for 16-18 hours. Compounds were dissolved in dimethyl sulfoxide (DMSO) to generate a 30mM stock. On the day of the experiment the media was removed and adherent cells were detached with trypsin for 5 minutes. Cells were then harvested, washed with complete RPMI 1640, spun down, resuspended in RPMI 1640 (containing 2% heat inactivated FBS, penicillin (100 units/ml) and streptomycin (100 μg/ml). The cells were plated in a 384-well plate at a density of 50,000 cells/well (final assay volume […]). Compounds were first dissolved in assay medium to obtain a 5× top concentration of 500 μM. 10 step dilutions (1:3) were then undertaken in assay medium containing 1.67% DMSO. 5× compound solutions were added to the culture medium to achieve desired final concentration (e.g. 100, 33, 11, 3.7, 1.2, 0.41, 0.14, 0.046, 0.015, 0.0051, 0.0017 μM). Final DMSO concentration was at 0.37%. Cells were incubated with compounds for 1 hour and then stimulated with gramicidin (5 μM) (Enzo) for 2 hours. Plates were then centrifuged at 340 g for 5 min. Cell free supernatant (40 μL) was collected using a 96—CHannel PlateMaster (Gilson) and the production of IL-1β was evaluated by HTRF (cisbio). […]

[1] abbreviates: Homo sapiens, THP-1, Table B2, class symbols, read-out: hTHP-1 IC50.
[2] abbreviates: Table B3, hTHP-1 assay, class symbols, read-out: IC50.

In the case of `CCc1c(C(F)(F)F)nc2c(c1NC(=O)N=S(N)(=O)c1cnc(C(C)(C)O)s1)CCC2` (stereo not shown) [Compound 610, N′-((3-ethyl-2-(trifluoromethyl)-6,7-dihydro-5H-cyclopenta[b]pyridin-4-yl)carbamoyl)-2-(2-hydroxypropan-2-yl)thiazole-5-sulfonimidamide], the IC50 under setting [1] is 5 to 30 µM. In the case of `CC(C)c1ncc(F)c(C(C)C)c1NC(=O)N=S(N)(=O)c1ccc(CN(C)C)cc1` (stereo not shown) [Compound 132, 4-((dimethylamino)methyl)-N′-((5-fluoro-2,4-diisopropylpyridin-3-yl)carbamoyl)benzenesulfon-imidamide], where the note is “Homo sapiens, THP-1, Table B1, numeric bounds, read-out: Average IC50 of compounds in hTHP-1 assay: hTHP-1 IC50”, the IC50 is over 27 µM. Take `Cc1c(C(F)(F)F)nc2c(c1NC(=O)N=S(N)(=O)c1nn(C(F)F)cc1F)CCC2` (stereo not shown) [Example 561, 1-(Difluoromethyl)-4-fluoro-N′-((3-methyl-2-(trifluoromethyl)-6,7-dihydro-5H-cyclopenta[b]pyridin-4-yl)carbamoyl)-1H-pyrazole-3-sulfonimidamide]: the IC50 (Homo sapiens, THP-1, Table B3, hTHP-1 assay, class symbols, read-out: IC50) was in the range of 0.2 to 1 µM. As for `CCc1cc(NC(=O)N=S(N)(=O)c2cnc(C(C)(C)O)s2)c2c(n1)CCC2` (single isomer, unassigned) [Compound 137a, (R) or (S)-N′-((2-ethyl-6,7-dihydro-5H-cyclopenta[b]pyridin-4-yl)carbamoyl)-2-(2-hydroxypropan-2-yl)thiazole-5-sulfonimidamide], the IC50 (Table B1, numeric bounds, read-out: Average IC50 of compounds in hTHP-1 assay: hTHP-1 IC50) is over 10 µM. On to `CC(C)(O)c1cc(F)c(S(N)(=O)=NC(=O)Nc2c3c(nc(C4CC4)c2C2CC2)CCC3)s1` (single isomer, unassigned) [Example 697, (R) or (S)-N′-((2,3-dicyclopropyl-6,7-dihydro-5H-cyclopenta[b]pyridin-4-yl)carbamoyl)-3-fluoro-5-(2-hydroxypropan-2-yl) thiophene-2-sulfonimidamide], for which, under setting [2], the IC50 lay in the range of 0.04 to 0.2 µM. As for `CN(C)C(=O)c1ncc(S(N)(=O)=NC(=O)Nc2c3c(nc4c2CCC4(C)C)CCC3)s1` (stereo not shown) [Example 751, 5-(N′-((3,3-dimethyl-1,2,3,5,6,7-hexahydrodicyclopenta[b,e]pyridin-8-yl)carbamoyl)sulfamidimidoyl)-N,N-dimethyl-thiazole-2-carboxamide], the IC50 (Homo sapiens, THP-1, Table B4, class symbols, read-out: hTHP-1 IC50) fell in the range of 1 to 5 µM. With `CN(C)Cc1nc(C(C)(C)O)sc1[S@](N)(=O)=NC(=O)Nc1c2c(nc3c1CCC3(C)C)CCC2` [Compound 709], the IC50 (Homo sapiens, THP-1, Table B2, numeric bounds, read-out: hTHP-1 IC50) is over 30 µM. Take `CC(O)c1nc(C(C)(C)O)sc1S(=N)(=O)NC(=O)Nc1c2c(nc3c1CCC3)CCC2` (single isomer, unassigned) [Compound 643b, (S, R/S) or (R, R/S)-N-((1,2,3,5,6,7-hexahydrodicyclopenta [b,e]pyridin-8-yl)carbamoyl)-4-(1-hydroxyethyl)-2-(2-hydroxypropan-2-yl) thiazole-5-sulfonimidamide]: the IC50 (Table B2, class symbols, read-out: hTHP-1 IC50) fell in the range of 5 to 30 µM. As to `CC(C)(O)c1cc(F)c(S(N)(=O)=NC(=O)Nc2c3c(nc(C(F)(F)F)c2C2CC2)CCC3)s1` (single isomer, unassigned) [Example 660, (S) or (R)-N′-((3-cyclopropyl-2-(trifluoromethyl)-6,7-dihydro-5H-cyclopenta[b]pyridin-4-yl)carbamoyl)-3-fluoro-5-(2-hydroxypropan-2-yl) thiophene-2-sulfonimidamide], the half-maximal inhibitory concentration (IC50) under setting [2] is 5 to 30 µM. In the case of `COCc1nc(C(C)(C)O)sc1S(N)(=O)=NC(=O)Nc1c2c(nc3c1CCC3)CCC2` (single isomer, unassigned) [Compound 689b, (R) or (S)-N′-((1,2,3,5,6,7-hexahydrodicyclopenta [b,e]pyridin-8-yl)carbamoyl)-2-(2-hydroxypropan-2-yl)-4-(methoxymethyl) thiazole-5-sulfonimidamide], the IC50 under setting [1] fell in the range of 5 to 30 µM.
